According to US11510964B2, “Macrocyclic peptides to decrease c-Myc protein levels and reduce cancer cell growth” (University of Kansas, priority 2017, dated 2022):
“Also recorded” adds a separate entry of the source. Non-standard residues stand in square brackets, D forms with d. Residues, ends and D or L forms follow the SMILES beside them.

Assays:
Akt in PC-3 cells = assay: Western blot of p-Akt/total Akt protein levels; assay type: cell-based, human; details: 48 h
Experimental: Cells were seeded in 6 well plates at a density of 1×10^5 cells/well and grown to 75% confluence. Cells were treated with [D-Trp]CJ-15,208 at the indicated concentrations. Cells were then harvested as described above, and the cell pellets lysed in RIPA buffer consisting of 10 mM Tris HCl, pH 8.0, 150 mM NaCl, 1 mM EDTA, 1% Triton-X-100, 0.1% SDS, 1% sodium deoxycholate, and a protease inhibitor cocktail #P8340 (Sigma). Cell lysates were centrifuged at 13×1000 rpm for 15 min and the supernatants collected. The total protein concentration was measured in cell lysates using the standard Bradford assay. SDS gel electrophoresis was performed using 4-20% polyacrylamide gel (BioRad). […] Signal densities of the protein bands were determined using ImageJ software (NIH) and normalized to the internal loading control (actin).
Each experiment was performed in triplicate unless otherwise stated in the figure legend. […] The effects of compound vs. vehicle treatment on protein levels (FIG. 10) were evaluated by one-way ANOVA with Dunnett's test for multiple comparisons.

BPH-1 cells = assay: Cell proliferation assay (WST-1); assay type: cell-based
Experimental: (§1) Human prostate cancer PC-3 cells were cultured and maintained in EMEM (ATCC), non-prostate HEK (human embryonic kidney) cells were cultured in DMEM, human prostate cancer DU145, LNCaP, 22Rv1 cells were cultured in RPMI 1640 (ATCC), and normal BPH-1 prostate cells and prostate cancer C4-2 cell line were cultured in RPMI 1640 (ATCC), all containing 10% fetal bovine serum (Atlanta Biologicals) and 1% penicillin/streptomycin (Invitrogen). Cells were grown at 37° C. in humidified air with 5% CO2 and passaged every fourth to fifth day following trypsinization with trypsin/EDTA (Invitrogen).^16
(§2) PC-3, LNCaP, DU 145, 22Rv1, C4-2, BPH-1, and HEK cells were grown to a density of 2000 cells/well in 96 well plates and treated with [D-Trp]CJ-15,208 or other peptides for 24-72 h in duplicate. Media containing [D-Trp]CJ-15,208 was changed every 24 h. The proliferation of treated cells was determined using the cell proliferation reagent WST-1 (Roche) per the manufacturer's instructions and compared to […] control cells in 1% DMSO in media. After treatment with compound 10 μL of the reagent was added to the well in 100 μL culture media, and the cells incubated at 37° C. for 30 min. The absorbance of the media in each well was measured at […] using a plate reader (BioTek). The percentage cell proliferation was normalized to vehicle treated control cells calculated as: (mean absorbance of sample/mean absorbance of control cells)×100.^38
(§3) Each experiment was performed in triplicate unless otherwise stated in the figure legend. GraphPad Prism 5 was used to determine IC50 values. Data represent the mean value+/−SEM. Compound vs. vehicle treated cells in the cell cycle phase and apoptosis experiments (FIGS. 5-8) were compared using the student's t-test, with a two-tailed, unpaired method, using the Prism software. The effects of compound vs. vehicle treatment on protein levels (FIG. 10) were evaluated by one-way ANOVA with Dunnett's test for multiple comparisons.

C4-2 cells = assay: Cell proliferation assay (WST-1); assay type: cell-based
Experimental: as §1, §2, §3

[1] = cited from earlier work
[2] = system: transfected HEK-293 cells; assay: c-Myc overexpression, Annexin V-APC/PI apoptosis assay; assay type: cell-based, human; details: 10 μM, 48 h
Experimental: The extent of apoptosis was analyzed by detecting surface expression of phosphatidylserine on apoptotic cells using an Annexin V-APC/PI dual staining apoptosis detection kit I (BD Biosciences) according to the manufacturer's protocol. Following treatment of PC-3 cells with 10 μM [D-Trp]CJ-15,208 or vehicle for 24 h or 48 h, the cells were collected, washed twice with cold PBS, and resuspended in 1× binding buffer at a concentration of 1×10^6 cells/mL. Cell suspension (100 μL) was transferred to a 5 ml culture tube, and 5 μL of Annexin V-APC and 25 μL of PI (50 μg/mL) were added. The cells were incubated for 15 min at room temperature in the dark with gentle vortexing, 400 μL of 1× binding buffer was then added to each sample, and the samples were analyzed using a Beckman-Coulter MoFlo XDP flow cytometer within one hour. The number of viable, apoptotic and necrotic cells were quantified using FlowJo v10.0.7. The apoptosis fraction (%) was calculated as (number of apoptotic cells/the number of total cells observed)×100%.^38
Forced expression of c-Myc in HEK 293 cells was performed using X-temeGENE HP #6366244001 (Sigma). Cells were cultured in antibiotic free DMEM supplemented with 10% FBS and transfected with pcDNA3-HA-HA-c-Myc #74164 (Addgene). Empty-vector pcDNA3-EV was used as a control. […] Samples were analyzed using a BD FACSCanto-II cell analyzer and quantified in FlowJo v10.2. […]

**Q.** What does the source list for `O=C1N[C@H](Cc2c[nH]c3ccccc23)C(=O)N[C@@H](Cc2ccccc2)C(=O)N2CCC[C@@H]2C(=O)N[C@H]1Cc1ccccc1` [[D-Trp]CJ-15,208, cyclo[Phe-D-Pro-Phe-D-Trp]] (cyclo(F[dP]F[dW]))?
**A.** total Akt protein levels (Akt in PC-3 cells; PC-3, highest concentration (50 μM)): significant decrease; cellular levels of p-Akt (Akt in PC-3 cells; PC-3, increasing concentrations): did not change significantly; IC50, cell growth (BPH-1 cells; 48 h): No effect; IC50, cell growth (BPH-1 cells; 72 h): No effect; effect on cell proliferation / cytotoxicity (BPH-1 cells; time not stated): No cytotoxicity was observed; also recorded: did not prevent cell proliferation; IC50, cell growth (C4-2 cells; 48 h): No effect; IC50, cell growth (C4-2 cells; 72 h): No effect; effect on cell proliferation (C4-2 cells; time not stated): no effect; also recorded: did not prevent cell proliferation; activity after oral administration [1]: active after oral administration; early apoptosis ([2]; HEK-293 overexpressing c-Myc): significant increase in early apotosis; early apoptosis ([2]; HEK-293 transfected with empty vector): no significant difference
